{"source": "patent US20030153621A1", "about": "“Use of 13-hode as a regulator of vascular biocompatibility and an inhibitor of cell hyperplasia” (priority 2000, published 2003)", "key": {"[1]": {"details": "human, in vivo; cited from earlier work"}, "Sarcoma 180 tumors": {"test_system": "Sarcoma 180 tumors", "details": "given orally; cited from earlier work"}, "[2]": {"test": "Plasma 13-HODE levels in rabbits after oral 13-HODE", "format": "in vivo, New Zealand white rabbits", "protocol": "(§1) New Zealand white rabbits (half males/half females; 2.5-2.9 kg) were used throughout. Rabbits were treated with 100, 400 or 1000 μg/kg/day of purified 13-HODE suspended in corn oil or ethyl-eicosapentaenoic acid (EPA), or with an equivolume of either suspending vehicle (total volume 1 ml) for 7 days. Serial blood samples were collected before, during and after treatment to assess the levels of 13-HODE in plasma. On day 7, the treatments were stopped. At that time, the rabbits were anaesthetised with a combination of Atravet, Ketamine, Vetrepham and glycopyrolate, given subcutaneously. Both carotid arteries of anaesthetised rabbits were isolated between 2 temporary ligatures, first by applying the proximal ligature, then allowing the blood to drain from the segment, and then applying the distal ligature. A 24-gauge angiocath attached to tubing filled with sterile saline and connected to a pressure manometer, was inserted into the isolated segment. Then the segment was filled with the saline to a pressure of 600 mm Hg which was maintained for 5 minutes. The pressure was relieved, and the angiocath and ligatures were removed, thereby allowing for blood flow restoration. Cessation of bleeding from the needle puncture site was achieved within 3 minutes without any manual manipulation. The incisions were sutured closed with 000 proline. The rabbits were injected intramuscularly with Temgesic to minimize any pain and with 12.5 mg Baytril as an antibiotic, and then allowed to recover. This injury procedure results in endothelial denudation and the exposure of a thrombogenic surface within 1 hour of restoration of blood flow, followed by SMC proliferation and intimal hyperplasia, which plateaus at 4 weeks and which is sustained for ±12 weeks (Buchanan MR, Brister SJ: 1998; Buchanan MR et al. 1999).\n(§2) Two, four or twelve weeks later, the rabbits were re-anaesthetised and their injured carotid arteries were again isolated. Segments of injured and uninjured carotid artery were harvested and processed histologically to assess VW hyperplasia. Other VW segments and blood samples were collected and processed for VW and plasma 13-HODE levels."}, "[3]": {"test": "Vessel wall 13-HODE levels in rabbits after oral 13-HODE", "format": "in vivo, New Zealand white rabbits", "protocol": "as §1, with “The rabbits were injected intramuscularly with Temgesic to minimize any pain and with 12.5 mg Baytril as an antibiotic, and then allowed to recover. This injury procedure results in endothelial denudation and the exposure of a thrombogenic surface within 1 hour of restoration of blood flow, followed by SMC proliferation and intimal hyperplasia, which plateaus at 4 weeks and which is sustained for ±12 weeks (Buchanan MR, Brister SJ: 1998; Buchanan MR et al. 1999).” left out"}, "[4]": {"test_system": "VW intimal hyperplasia of injured carotid arteries", "test": "Intimal hyperplasia after carotid artery pressure injury in rabbits", "format": "in vivo, New Zealand white rabbits", "details": "for intimal hyperplasia: 1,000 μg/kg/day for 7 days", "protocol": "as §1, §2"}, "[5]": {"test": "Observation of hemorrhagic defect in the experimental animals", "format": "in vivo, rabbits", "details": "any of the experimental animals", "protocol": "as §1, with “The rabbits were injected intramuscularly with Temgesic to minimize any pain and with 12.5 mg Baytril as an antibiotic, and then allowed to recover. This injury procedure results in endothelial denudation and the exposure of a thrombogenic surface within 1 hour of restoration of blood flow, followed by SMC proliferation and intimal hyperplasia, which plateaus at 4 weeks and which is sustained for ±12 weeks (Buchanan MR, Brister SJ: 1998; Buchanan MR et al. 1999).” left out"}, "[6]": {"test": "Stability of 13-HODE in dosage forms (oil or ester carrier)", "format": "physicochemical", "details": "dissolved in a triglyceride oil carrier or an ester", "protocol": "A real problem is presented by the fact that active daily doses of 13-HODE are in the 50 to 1,000 μg/kg/day range. […] That translates into a […] dose for a 70 kg person. Since doses for humans are often considerably lower than doses for animals because of a weight/body surface area scaling, a daily dose of as little as 5 mg or less is really possible. Formulating an oily liquid is such small doses is a problem. It could be absorbed into tabletting materials and tabletted and coated, or micro-encapsulated by methods well known to those skilled in the art. […] Other triglyceride oils such as vegetable oil, including sunflower, safflower, soy, evening primrose, borage, coconut or palm oil, or cottonseed, rapeseed, olive, fish body or fish liver oils may all be used for this purpose. Particualrly useful esters for this purpose are esters of fatty acids with 16-26 carbon atoms and one or more double bonds in the chain."}, "[7]": {"details": "dose comparable to that used clinically; cited from earlier work"}, "[8]": {"test_system": "Platelet/injured VW interactions", "details": "dose comparable to that used clinically; cited from earlier work"}, "intimal SMC hyperplasia": {"test_system": "intimal SMC hyperplasia", "details": "cited from earlier work"}, "[9]": {"details": "3.2 gm daily (20 capsules) for 30 days; cited from earlier work"}, "[10]": {"test_system": "Platelet/injured VW interactions", "details": "3.2 gm daily for 30 days; cited from earlier work"}, "[11]": {"details": "suspended in ethyl-EPA, all treatment levels"}}, "note": "Read-outs that look alike come from different tables or passages of the source.", "data": [{"smiles": "CC(=O)Oc1ccccc1C(=O)O", "note": "[ASA]", "values": [{"measurement": "overall risk reduction (stroke, myocardial infarction, transient ischemic attacks)", "setting": "[1]", "result": 25, "unit": "%"}]}, {"smiles": "CCCCC/C=C\\C=C\\C(O)CCCCCCCC(=O)O", "note": "(stereo not shown) [9-HODE, 9-hydroxy-10(E)12(Z) octadecadienoic acid]", "values": [{"measurement": "minimum effective dose for inhibition of tumour growth rate", "setting": "Sarcoma 180 tumors", "result": 55, "unit": "mg/kg/day"}]}, {"smiles": "CCCCCC(O)/C=C/C=C\\CCCCCCCC(=O)O", "note": "(stereo not shown) [13-HODE, 13-hydroxyoctadeca-9Z, 11E-dienoic acid]", "values": [{"measurement": "increase in the plasma 13-HODE levels", "setting": "[2]; 100 μg/kg/day oral, 7 days, suspended in corn oil", "result": "three-fold"}, {"measurement": "time to significantly elevated 13-HODE level in cell-free plasma", "setting": "[2]; 1,000 μg/kg/day oral", "result": "≤ 3", "unit": "days"}, {"measurement": "effect of increasing the dose on plasma 13-HODE levels", "setting": "[2]; 1,000 μg/kg/day vs 100 μg/kg/day, corn oil", "result": "no further effect"}, {"measurement": "time 13-HODE level in cell-free plasma remained elevated", "setting": "[2]; 1,000 μg/kg/day, treatment stopped after 7 days", "result": 4, "unit": "weeks"}, {"measurement": "time for plasma 13-HODE levels to return to almost control levels", "setting": "[2]; after 7 day oral treatment, corn oil", "result": "14 to 21", "unit": "days"}, {"measurement": "absolute levels of plasma 13-HODE versus corn oil vehicle", "setting": "[2]; [11]", "result": "lower"}, {"measurement": "VW 13-HODE levels", "setting": "[3]; suspended in corn oil, measured 28 days after stopping the treatment", "result": "dose-related increase"}, {"measurement": "absolute levels of VW 13-HODE versus corn oil vehicle", "setting": "[3]; [11]", "result": "somewhat lower"}, {"measurement": "intimal VW hyperplasia", "setting": "[4]; 100 μg/kg/day for 7 days, in corn oil or ethyl-EPA, p<0.001", "result": "significantly inhibited"}, {"measurement": "intimal hyperplasia", "setting": "[4]; 2 weeks after injury, placebo 18%", "result": 8, "unit": "%"}, {"measurement": "intimal hyperplasia", "setting": "[4]; 4 weeks after injury, placebo 38%", "result": 16, "unit": "%"}, {"measurement": "intimal hyperplasia", "setting": "[4]; 12 weeks after injury", "result": "> 3", "unit": "%"}, {"measurement": "hemorrhagic defect", "setting": "[5]", "result": "no detectable hemorrhagic defect"}, {"measurement": "stability of dosage form", "setting": "[6]", "result": "stable without degradation"}]}, {"smiles": "OCCN(CCO)c1nc(N2CCCCC2)c2nc(N(CCO)CCO)nc(N3CCCCC3)c2n1", "note": "[Persantine, dipyridamole]", "values": [{"measurement": "increase of VW 13-HODE", "setting": "[7]", "result": "30 to 50", "unit": "%"}, {"measurement": "decrease of platelet/injured VW interactions", "setting": "[8]", "result": "> 2", "unit": "fold"}, {"measurement": "SMC hyperplasia", "setting": "intimal SMC hyperplasia; 1 mg/kg/day for 7 days before injury, 4 weeks after VW injury", "result": "inhibited"}, {"measurement": "platelet function", "setting": "intimal SMC hyperplasia; 1 mg/kg/day for 7 days", "result": "unchanged"}]}, {"smiles": "CCCCC/C=C\\C/C=C\\CCCCCCCC(=O)O", "note": "[linoleic acid, Octa-deca-9Z, 12Z-dienoic acid]", "values": [{"measurement": "increase of VW 13-HODE levels", "setting": "[9]", "result": 2, "unit": "fold"}, {"measurement": "decrease of platelet/injured VW interactions", "setting": "[10]", "result": "> 2", "unit": "fold"}]}]}
